In US20080039444A1, “COMPOUNDS” (GLAXO GROUP LIMITED, priority 2006, published 2008):

Tests used:
[1] = CNS penetration (intravenous bolus or infusion at steady state, blood and brain levels); assay type: in vivo, rat; conditions: male CD Sprague Dawley rats
Method: (i) CNS penetration by bolus administration
Compounds are dosed intravenously at a nominal dose level of 1 mg/kg to male CD Sprague Dawley rats. Compounds are formulated in 5% DMSO/45% PEG200/50% water. Blood samples are taken under terminal anaesthesia with isoflurane at 5 min post-dose and the brains are also removed for assessment of brain penetration. Blood samples are taken directly into heparinised tubes. Blood samples are prepared for analysis using protein precipitation and brain samples are prepared using extraction of drug from brain by homogenisation and subsequent protein precipitation. The concentration of parent drug in blood and brain extracts is determined by quantitative LC-MS/MS analysis using compound-specific mass transitions.
(ii) CNS penetration following intravenous infusion at steady state
A loading dose of the compounds is given to male CD Sprague Dawley rats at a nominal dose level of 0.4 mg/kg. The compounds are then infused intravenously for 4 h at a nominal dose level of 0.1 mg/kg/h. Compounds are formulated in 2% DMSO/30% PEG200/68% water. Serial or terminal blood samples are taken at 0.5, 1.5, 2.5, 3, 3.5 and 4 h post dose. The final blood sample is collected under terminal anaesthesia with isoflurane and the brains are also removed for assessment of brain penetration. Blood samples are taken directly into heparinised tubes. Blood samples are prepared for analysis using protein precipitation and brain samples are prepared using extraction of drug from brain by homogenisation and subsequent protein precipitation. The concentration of parent drug in blood and brain extracts is determined by quantitative LC-MS/MS analysis using compound-specific mass transitions.

human H1 receptor = target: T1, human H1 receptor (Homo sapiens, UniProt P35367); experiment: Histamine H1 functional antagonist assay (FLIPR): determination of functional pKi values; assay type: cell-based; conditions: CHO cells expressing human H1, histamine at EC80; read-out: average pKi (pKb) at H1 (converted)
T1 construct: expressed in transfected cells
Excerpt: H1 receptor cell line generation and FLIPR assay protocol
1. Generation of histamine H1 cell line
The human H1 receptor is cloned using known procedures described in the literature [Biochem. Biophys. Res. Commun., 201(2):894 (1994)]. Chinese hamster ovary (CHO) cells stably expressing the human H1 receptor are generated according to known procedures described in the literature [Br. J. Pharmacol., 117(6):1071 (1996)].
Histamine H1 functional antagonist assay: Determination of functional pKi values […]
10 μl of test compound, diluted to the required concentration in Tyrodes buffer+probenecid (or 10 μl Tyrodes buffer+probenecid as a control) is added to each well and the plate is incubated for 30 min at 37° C., 5% CO2. The plates are then placed into a FLIPR™ (Molecular Devices, UK) to monitor cell fluorescence (λex=488 nm, αEM=540 nm) in the manner described in Sullivan et al., (In: Lambert DG (ed.), Calcium Signaling Protocols, New Jersey: Humana Press, 1999, 125-136) before and after the addition of 10 μl histamine at a concentration that results in the final assay concentration of histamine being EC80.
Functional antagonism is indicated by a suppression of histamine induced increase in fluorescence, as measured by the FLIPR™ system (Molecular Devices). By means of concentration effect curves, functional affinities are determined using standard pharmacological mathematical analysis.

T1 sequence (P35367 whole entry): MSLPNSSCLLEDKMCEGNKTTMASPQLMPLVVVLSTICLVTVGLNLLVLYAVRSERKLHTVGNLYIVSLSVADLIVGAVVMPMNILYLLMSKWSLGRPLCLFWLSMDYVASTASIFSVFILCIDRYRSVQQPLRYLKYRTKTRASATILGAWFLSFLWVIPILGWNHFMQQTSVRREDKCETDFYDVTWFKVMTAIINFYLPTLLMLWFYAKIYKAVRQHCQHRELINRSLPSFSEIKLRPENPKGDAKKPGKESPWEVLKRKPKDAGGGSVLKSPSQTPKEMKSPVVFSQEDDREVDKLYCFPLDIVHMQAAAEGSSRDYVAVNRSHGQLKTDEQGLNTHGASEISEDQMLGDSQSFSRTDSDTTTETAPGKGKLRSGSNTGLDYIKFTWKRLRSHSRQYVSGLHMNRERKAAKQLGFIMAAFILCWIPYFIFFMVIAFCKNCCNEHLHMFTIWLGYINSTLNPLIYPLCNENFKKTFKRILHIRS

O=c1c2ccccc2c(Cc2ccc(Cl)cc2)nn1C[C@H]1CCCN1CCCCc1ccc(OCCCN2CCCCCC2)cc1 [Example 24, 4-[(4-Chlorophenyl)methyl]-2-({(2R)-1-[4-(4-{[3-(hexahydro-1H-azepin-1-yl)propyl]oxy}phenyl)butyl]-2-pyrrolidinyl}methyl)-1(2H)-phthalazinone free base]
CNS penetration compared with azelastine [1]: lower CNS penetration than azelastine | Ki (human H1 receptor): ~15.8 nM
